Literature values as cited in patent US10098846B2, “Drug-containing particulate composition with cationic agent, associated medical devices, and methods for treatment” (Surmodics, Inc., priority 2016, dated 2018).

- solubility in N,N-dimethylformamide (N,N-dimethylformamide): soluble
- solubility in acetone (acetone): soluble
- solubility in ether (ether): soluble
- solubility in water (water): insoluble
Compound: CO[C@H]1C[C@@H]2CC[C@@H](C)[C@@](O)(O2)C(=O)C(=O)N2CCCC[C@H]2C(=O)O[C@H]([C@H](C)C[C@@H]2CC[C@@H](O)[C@H](OC)C2)CC(=O)[C@H](C)/C=C(\C)[C@@H](O)[C@@H](OC)C(=O)[C@H](C)C[C@H](C)/C=C/C=C/C=C/1C [Rapamycin, rapamycin]
